Here are results for 36 molecules from patent publication US20230322805A1, “NOVEL PYRIMIDODIAZEPINE DERIVATIVES OR USES THEREOF” (SPARK BIOPHARMA, INC., priority 2020, published 2023).

In data set [1] the test system is BiFC-tau Venus HEK293 cells (tau aggregation, hTau441). The experiment in a line: BiFC-tau Venus HEK293 cell assay monitoring tau aggregation under thapsigargin. Type of data set: cell-based, human. To be noted: for activity at 10 µM / IC50: Homo sapiens; for activity at 10 µM: HEK293-BiFC-tau-Venus cells co-treated with 10 μM compound and 80 nM thapsigargin for 24 hours, read-out: BiFC-tau intensity (%); for IC50: HEK293, inhibition of BiFC-tau Venus fluorescence, 80 nM thapsigargin, table head prints no unit, μM, read-out: BiFC-tau intensity (IC50). As for the experimental part:
Phenotype-based screening to monitor tau assembly was performed using BiFC-tau Venus HEK293 cells in a high-throughput manner. Cells were seeded in 384-well plates at a density of 2.8×10^3 cells/well in 40 μL medium for 24 hours. Cells were treated with 80 nM thapsigargin (Sigma-Aldrich) in 10 μL medium and then ˜ 3,000 pDOS library compounds (10 μM), including compounds according to the present invention, using a 0.1 μL pinning tool. For knockdown experiments, cells were transfected with 5 or 10 nM siRNA using Lipofectamine RNAiMAX and incubated for 48 hours before thapsigargin treatment. […] Plates were scanned on an INCell Analyzer 2000 (GE Healthcare) at λex/λem=490/525 nm for Venus fluorescence (for the FITC channel) and λex/λem=350/455 nm for nuclei (for the DAPI channel). Bright-field images were taken to confirm cell morphology, and images were analyzed to quantify Venus intensity per cell using developer software (GE Healthcare).
1-1. According to the method described in Examples 1-15 above, the expression of Venus-based bimolecular fluorescence complemented-tau (BiFC-tau) was confirmed using HEK293 human embryonic kidney cells, thereby phenotyping the phenotype-based screening was performed.
The N-terminal Venus (VN173) and C-terminal Venus (VC155) fragment sequences are fused with the full-length human tau (hTau441) sequence to form the BiFC-tau Venus HEK293 cell system. Soluble tau dimers can be measured by monitoring the turn-on/off signal of Venus fluorescence through co-expression of the two fused vectors, hTau441-VN173 and hTau441-VC1 55.
As a stimulator of tau aggregation, thapsigargin (TG; an ER stress inducer), a direct inhibitor of sarco/endoplasmic reticulum Ca2^+-ATPase, was used. This disrupts calcium homeostasis. Thapsigargin treatment induces tau dimerization (tau aggregation), which can be confirmed by BiFC-tau Venus fluorescence turn-on.

For data set [2], the system named is acute Alzheimer's mouse model. The experiment in a line: Acute Alzheimer's mouse model (acquisition and probe test). Type of data set: in vivo. To be noted: acute Alzheimer's mouse model. As for the experimental part:
7-1. Potential therapeutic effect of SB1617 in an acute Alzheimer's mouse model was identified, and the design for the experiment is schematically shown in FIG. 40
7-3. As a result of confirming the treatment efficacy through a probe test, after removing the platform, it was performed by recording how many times the mouse passed the position where the platform was […]

`CN(Cc1ccccc1)c1ncnc2c1[C@@H]1OC[C@H](CN2)N1S(C)(=O)=O` [Compound 107]: the melting point lay within 136 to 138 °C. The activity at 10 µM in data set [1] stood at 94%. The “change in Venus fluorescence intensity” value in data set [1] (various concentrations with 80 nM TG for 20 hours) was “the activity was lost”. `Cc1ccc(S(=O)(=O)N2[C@H]3CNc4ncnc(N(C)Cc5ccccc5)c4[C@@H]2OC3)cc1` [Compound 101] registered a melting point of 150 to 152 °C. Besides, in data set [1], the IC50 came to 9.1 µM and the activity at 10 µM amounted to 65%.

`CN(Cc1ccccc1)c1ncnc2c1[C@@H]1OC[C@H](CN2)N1S(=O)(=O)c1ccc(F)cc1` [Compound 106] came in with a melting point of 105 to 107 °C. Also, the activity at 10 µM in data set [1] is 81%.

Consider `CN(Cc1ccccc1)c1ncnc2c1[C@@H]1OC[C@H](CN2)N1S(=O)(=O)c1cccs1` [Compound 111], for which the melting point lay within 112 to 114 °C. In data set [1], the activity at 10 µM is 110%. Take `CN(Cc1ccc(Cl)cc1)c1ncnc2c1[C@H]1N(S(=O)(=O)c3ccc([N+](=O)[O-])cc3)[C@@H](CN2)CS1(=O)=O` [Compound 134]: in data set [1], the activity at 10 µM is 100%. The molecule `CN(Cc1ccccc1)c1ncnc2c1[C@@H]1OC[C@H](CN2)N1S(=O)(=O)c1cccnc1` [Compound 110] displayed a melting point of 185 to 187 °C. Also, in data set [1], the activity at 10 µM is 130%. Consider `CN(Cc1ccccc1)c1ncnc2c1[C@@H]1OC[C@H](CN2)N1S(=O)(=O)c1ccccc1[N+](=O)[O-]` [Compound 103], for which, in data set [1], the activity at 10 µM was 102%. As to `COc1ccc(-c2ncnc3c2[C@@H]2OC[C@H](CN3)N2S(=O)(=O)c2ccc([N+](=O)[O-])cc2)cc1` [Compound 116], the melting point was 250 to 252 °C. Further, in data set [1], the activity at 10 µM is 135%. Take `CN(Cc1ccccc1)c1ncnc2c1[C@@H]1OC[C@H](CN2)N1S(=O)(=O)c1ccc([N+](=O)[O-])cc1` [Compound 105]: the melting point is 97 to 99 °C. Also, in data set [1], the IC50 amounted to 5.2 µM and the activity at 10 µM came to 46%. On to `C=CCOC(=O)N1[C@H]2CNc3ncnc(N(C)Cc4ccc(Cl)cc4)c3[C@@H]1OC2` [Compound 126], for which, in data set [1], the activity at 10 µM was 100%. With `CN(Cc1ccccc1)c1ncnc2c1[C@@H]1OC[C@H](CN2)N1S(=O)(=O)c1cccc([N+](=O)[O-])c1` [Compound 104], the activity at 10 µM in data set [1] was determined as 115%. As for `CN(Cc1ccc(Cl)cc1)c1ncnc2c1[C@@H]1SC[C@H](CN2)N1C(=O)Nc1ccc([N+](=O)[O-])cc1` [Compound 133], the activity at 10 µM in data set [1] is 94%. `C=C(C)c1ncnc2c1[C@@H]1OC[C@H](CN2)N1S(=O)(=O)c1ccc([N+](=O)[O-])cc1` [Compound 115] had a melting point of 200 to 202 °C. Moreover, the activity at 10 µM in data set [1] was found to be 99%. Molecule `COc1ccc(S(=O)(=O)N2[C@H]3CNc4ncnc(N(C)Cc5ccc(Cl)cc5)c4[C@@H]2OC3)cc1` [Compound 121] came in with a melting point of 156 to 158 °C. Moreover, in data set [1], the IC50 stood at 6.6 µM and the activity at 10 µM was 51%. With `CN(Cc1ccccc1)c1ncnc2c1[C@@H]1OC[C@H](CN2)N1S(=O)(=O)c1ccccc1` [Compound 108], the melting point is 120 to 122 °C. Moreover, in data set [1], the activity at 10 µM was 105%. With `CN(Cc1ccc(Cl)cc1)c1ncnc2c1[C@H]1OCC[C@@H](CN2)N1S(=O)(=O)c1ccc([N+](=O)[O-])cc1` [Compound 128], the activity at 10 µM in data set [1] amounted to 95%.

As to `CNc1ncnc2c1[C@@H]1OC[C@H](CN2)N1S(=O)(=O)c1ccc([N+](=O)[O-])cc1` [Compound 136], the activity at 10 µM in data set [1] was found to be 10%. On the same count and under the same terms, to `CN(Cc1ccc(Cl)cc1)c1ncnc2c1CN(S(=O)(=O)c1ccc([N+](=O)[O-])cc1)[C@H](CO)CN2` [Compound 127] belongs 100%; to `CCN1C[C@H]2CO[C@@H](c3c(N(C)Cc4ccc(Cl)cc4)ncnc31)N2S(=O)(=O)c1ccc([N+](=O)[O-])cc1` [Compound 130], 70%. On to `CN(Cc1ccc(Cl)cc1)c1ncnc2c1[C@@H]1OC[C@H](CN2C(=O)C2CC2)N1S(=O)(=O)c1ccc([N+](=O)[O-])cc1` [Compound 123], for which the melting point lay in the range of 124 to 126 °C. For the same molecule, the activity at 10 µM in data set [1] amounted to 78%. `C#Cc1ccc(S(=O)(=O)N2[C@H]3CNc4ncnc(N(C)Cc5ccc(N=[N+]=[N-])cc5)c4[C@@H]2OC3)cc1` [Compound 124] registered a melting point of 139 to 141 °C. Besides, in data set [1], the IC50 worked out at 8.1 µM and the activity at 10 µM was determined as 50%. `CC(C)N(Cc1ccccc1)c1ncnc2c1[C@@H]1OC[C@H](CN2)N1S(=O)(=O)c1ccc([N+](=O)[O-])cc1` [Compound 114] gave a melting point of 85 to 87 °C. Moreover, in data set [1], the IC50 came to 6.9 µM and the activity at 10 µM turned out to be 47%.

`CN(C)c1ncnc2c1[C@@H]1OC[C@H](CN2)N1S(=O)(=O)c1ccc([N+](=O)[O-])cc1` [Compound 112] displayed a melting point of 118 to 120 °C. For the same molecule, in data set [1], the activity at 10 µM was determined as 90%.

Consider `CC(=O)N1C[C@H]2CO[C@@H](c3c(N(C)Cc4ccc(Cl)cc4)ncnc31)N2S(=O)(=O)c1ccc([N+](=O)[O-])cc1` [Compound 122], for which the melting point was 105 to 107 °C. Moreover, the activity at 10 µM in data set [1] was 81%. Consider `CN(Cc1ccc(Cl)cc1)c1ncnc2c1[C@H]1OC[C@@H](CN2)N1S(=O)(=O)c1ccc([N+](=O)[O-])cc1` [Compound 125], for which the activity at 10 µM in data set [1] came to 98%.

In the case of `CN(CCc1ccccc1)c1ncnc2c1[C@@H]1OC[C@H](CN2)N1S(=O)(=O)c1ccc([N+](=O)[O-])cc1` [Compound 113], the melting point is 108 to 110 °C. The activity at 10 µM in data set [1] was determined as 71%.

Regarding `COc1cc2c(cc1OC)C(=O)C(CC1CCN(Cc3ccccc3)CC1)C2` (centres unmarked) [Donepezil, reference compound], in data set [2], the “learning ability (Acquisition test), rank order” value was “WT >Donepezil >SB-1617>Vehicle”. As to `CN(Cc1ccc(F)cc1)c1ncnc2c1[C@@H]1OC[C@H](CN2)N1S(=O)(=O)c1ccc([N+](=O)[O-])cc1` [Compound 118], the melting point is 102 to 104 °C. Further, in data set [1], the IC50 came out at 7.6 µM and the activity at 10 µM was 55%. As for `CN(Cc1ccc(Cl)cc1)c1ncnc2c1[C@@H]1SC[C@@H](CN2)N1C(=O)OC(C)(C)C` [Compound 132], the activity at 10 µM in data set [1] was 80%. `CN(Cc1ccc(Cl)cc1)c1ncnc2c1[C@@H]1OC[C@H](CN2C(=O)c2ccc(F)cc2)N1S(=O)(=O)c1ccc([N+](=O)[O-])cc1` [Compound 129]: the activity at 10 µM in data set [1] is 70%. As for `COc1ccc(CN(C)c2ncnc3c2[C@@H]2SC[C@H](CN3)N2S(=O)(=O)c2ccc([N+](=O)[O-])cc2)cc1` [Compound 135], the activity at 10 µM in data set [1] is 57%. For the molecule `CN(Cc1ccc(N=[N+]=[N-])cc1)c1ncnc2c1[C@@H]1OC[C@H](CN2)N1S(=O)(=O)c1ccc([N+](=O)[O-])cc1` [Compound 119], the melting point fell in the range of 88 to 90 °C. Moreover, in data set [1], the IC50 came to 4.6 µM and the activity at 10 µM was determined as 56%.

Molecule `COc1ccc(S(=O)(=O)N2[C@H]3CNc4ncnc(N(C)Cc5ccccc5)c4[C@@H]2OC3)cc1` [Compound 102] had a melting point of 121 to 123 °C. Besides, the activity at 10 µM in data set [1] is 79%. For `CN(Cc1ccc(Cl)cc1)c1ncnc2c1[C@@H]1OC[C@H](CN2)N1S(=O)(=O)c1ccc(F)cc1` [Compound 120], the melting point was in the range of 150 to 152 °C. Moreover, in data set [1], the activity at 10 µM turned out to be 81%. Molecule `CN(Cc1ccccc1)c1ncnc2c1[C@@H]1OC[C@H](CN2)N1S(=O)(=O)Cc1ccccc1` [Compound 109] came in with a melting point of 78 to 80 °C. The activity at 10 µM in data set [1] worked out at 84%. For `CN(Cc1ccc(Cl)cc1)c1ncnc2c1[C@@H]1SC[C@H](CN2)N1S(=O)(=O)c1ccc([N+](=O)[O-])cc1` [Compound 131], the activity at 10 µM in data set [1] came out at 98%.

The melting point is the temperature, or range, at which the solid turns liquid. In general, IC50 refers to the point on the concentration scale where inhibition reaches its midpoint.
